In patent US5824698A, “Antibacterial dibenzimidazole derivatives” (priority 1994, dated 1998) one finds MIC data, which are given here for 4 compounds.

Each structure is given as a SMILES string. Converted amounts (≈) assume the structure as drawn. Where a name gives a salt, the structure may show the parent alone. Read-outs that look alike come from different tables or passages of the source.

Format in all cases: cell-based
Experiment [1] deals with S. haemolyticus 91. As to the kind of experiment: Antibacterial activity in vitro (MIC, standard agar method). Conditions: Staphylococcus haemolyticus, DST agar, 35° C., 20 hours, read-out: Minimum inhibitory concentration (MIC). On the procedure:
(§1) The minimum inhibitory concentration (MIC) of the substances investigated against gram-positive and gram-negative strains was determined using standard agar methods. The compounds were dissolved in a small amount of dimethyl sulphoxide, diluted with water and incorporated into liquified DST agar at 50° C. The thus-produced agar plates were used immediately thereafter in the test. The test concentrations lay between 128 and 0.06 μg/ml. The bacterial inoculation solutions were prepared from pre-cultures grown overnight, diluted and applied to the agar surface using an inoculation device (Denley A400). The plates were incubated at 35° C. for 20 hours. The MIC was determined as the lowest concentration of substance which prevented a visible growth. A scarcely visible turbidity and the growth of less than 5 colonies were ignored. The determinations of the antibacterial activities (Tab. 1) were carried out not only for the free bases, but also for the hydrochloride salt of each compound. The same values were obtained within experimental error.

The subject of experiment [2] is S. marcescens. The experiment is described as above. As to conditions: Serratia marcescens, read-out: Minimum inhibitory concentration (MIC). Here is the method: as §1
Experiment [3] has as its system E. coli 1527 E. The description is as above. Conditions: Escherichia coli, read-out: Minimum inhibitory concentration (MIC). On the procedure:
as §1

The subject of experiment [4] is E. cloacae P 99. The experiment is described as above. As to conditions: Enterobacter cloacae, P99, 20 h, read-out: Minimum inhibitory concentration (MIC). On the procedure:
as §1

Experiment [5] relates to E. coli H560. The description is as above. As to conditions: Escherichia coli, read-out: Minimum inhibitory concentration (MIC). On the procedure:
as §1

Experiment [6] deals with S. aureus 101. Described as above. Conditions: Staphylococcus aureus, DST agar, 35° C., 20 hours, read-out: Minimum inhibitory concentration (MIC). On the procedure: as §1
The test system of experiment [7] is E. coli B. The experiment is described as above. Conditions: Escherichia coli, DST agar, 35° C., 20 hours, read-out: Minimum inhibitory concentration (MIC). On the procedure: as §1
Experiment [8] concerns E. coli 1346. Described as above. Conditions: Escherichia coli, DST agar, 35° C., 20 hours, read-out: Minimum inhibitory concentration (MIC). Here is the method: as §1
For experiment [9], the system named is E. coli K12 KEA-12 (GyrA). The experiment is described as above. As to conditions: Escherichia coli, 20 h, read-out: Minimum inhibitory concentration (MIC). Here is the method:
as §1

The test system of experiment [10] is Staph. haemolyticus 75. The description is as above. As to conditions: Staphylococcus haemolyticus, DST agar, 35° C., 20 hours, read-out: Minimum inhibitory concentration (MIC). On the procedure: as §1
The subject of experiment [11] is Staph. aureus 887. The description is as above. As to conditions: Staphylococcus aureus, DST agar, 35° C., 20 hours, read-out: Minimum inhibitory concentration (MIC). On the procedure:
as §1

Experiment [12] has as its system E. coli AS-19. The experiment is described as above. Conditions: Escherichia coli, AS19, DST agar, 35° C., 20 hours, read-out: Minimum inhibitory concentration (MIC). On the procedure: as §1
Experiment [13] concerns Staph. aureus 25923. The experiment is described as above. As to conditions: Staphylococcus aureus, DST agar, 35° C., 20 hours, read-out: Minimum inhibitory concentration (MIC). On the procedure:
as §1

For experiment [14], the system named is P. aeroguinosa 3351. Described as above. As to conditions: read-out: Minimum inhibitory concentration (MIC). On the procedure:
as §1

Experiment [15] concerns S. aureus 853. The description is as above. As to conditions: Staphylococcus aureus, DST agar, 35° C., 20 hours, read-out: Minimum inhibitory concentration (MIC). Here is the method:
as §1

Experiment [16] concerns E. faecalis 6. The experiment is described as above. As to conditions: read-out: Minimum inhibitory concentration (MIC). On the procedure: as §1
The subject of experiment [17] is E. coli DC2. The description is as above. As to conditions: Escherichia coli; E. coli DC2; DST agar, 35° C., 20 hours; read-out: Minimum inhibitory concentration (MIC). Here is the method:
as §1

The subject of experiment [18] is E. coli 159 R. Described as above. As to conditions: Escherichia coli, read-out: Minimum inhibitory concentration (MIC). Here is the method: as §1
The subject of experiment [19] is P. aeruginosa 799/61. Described as above. Conditions: Pseudomonas aeruginosa, read-out: Minimum inhibitory concentration (MIC). Here is the method:
as §1

In experiment [20] the test system is Helicobacter pylori K 1585. Put plainly: Antibacterial activity against Helicobacter pylori in vitro (MIC, agar method). As to conditions: K1585, H. pylori K 1585, Muller-Hinton agar, 5% sheep blood, incubation 4 days, read-out: Minimum inhibitory concentration (MIC). Here is the method: as §1
(§2) The antibacterial activities against Helicobacter pylori were carried out analogously to the method described above with the following variations: The compounds were incorporated into Muller-Hinton agar containing 5% sheep blood additive. The test concentrations lay between 10 and 0.1 μg/ml. […]

The subject of experiment [21] is Helicobacter pylori PH 81. Described as above. Conditions: PH81, H. pylori PH 81, Muller-Hinton agar, 5% sheep blood, incubation 7 days, read-out: Minimum inhibitory concentration (MIC). Here is the method: as §1, §2
Experiment [22] relates to P. aeroginosa BA. As to the kind of experiment: Antibacterial activity in vitro (MIC, standard agar method). As to conditions: DST agar, 35° C., 20 hours, read-out: Minimum inhibitory concentration (MIC). On the procedure:
as §1

Experiment [23] relates to E. coli 25922. The experiment is described as above. Conditions: read-out: Minimum inhibitory concentration (MIC). On the procedure: as §1
In experiment [24] the test system is K. oxytoca 1082E. The experiment is described as above. As to conditions: Klebsiella oxytoca, DST agar, 35° C., 20 hours, read-out: Minimum inhibitory concentration (MIC). On the procedure:
as §1

For experiment [25], the system named is B. subtilis ATCC 585369. The experiment is described as above. As to conditions: Bacillus subtilis, ATCC585369, DST agar, 35° C., 20 hours, read-out: Minimum inhibitory concentration (MIC). On the procedure: as §1
Setting [26] is: Enterococcus faecalis, E. faecalis 6, DST agar, 35° C., 20 hours.
The mark [27] stands for this setting: E. coli 159 R, DST agar, 35° C., 20 hours.
Where [28] appears, read: Escherichia coli, E. coli 25922, DST agar, 35° C., 20 hours.

With `Oc1ccc(-c2nc3ccc(-c4ccc5nc(-c6ccc(O)c(F)c6)[nH]c5c4)cc3[nH]2)cc1F` [Example 1, 2-Fluoro-4-[2'-(3-fluoro-4-hydroxy-phenyl)-6,6'-dibenzimidazol-2-yl]-phenol], the MIC was 8 µg/mL (≈ 17.6 µM) in [1]; more than 64 µg/mL in experiment [2] (S. marcescens, DST agar, 35° C., 20 hours); more than 64 µg/mL in experiment [3] (E. coli 1527 E, DST agar, 35° C., 20 hours); more than 64 µg/mL in experiment [4]; 8 µg/mL (≈ 17.6 µM) in [5] (E. coli H560, DST agar, 35° C., 20 hours); 8 µg/mL (≈ 17.6 µM) in experiment [6]. In addition, the MIC was more than 64 µg/mL in experiment [7]; 32 µg/mL (≈ 70.4 µM) in experiment [8]; more than 64 µg/mL in experiment [9]; 0.25 µg/mL (≈ 0.55 µM) in experiment [10]; 16 µg/mL (≈ 35.2 µM) in experiment [11]; more than 64 µg/mL in [12]. Besides, the MIC was 8 µg/mL (≈ 17.6 µM) in experiment [13]; more than 64 µg/mL in experiment [14] (P. aeroguinosa 3351, DST agar, 35° C., 20 hours); 16 µg/mL (≈ 35.2 µM) in [15]; 2 µg/mL (≈ 4.4 µM) in experiment [16] (setting [26]); more than 64 µg/mL in [17]; 8 µg/mL (≈ 17.6 µM) in [18] (setting [27]). In addition, the MIC in [19] (P. aeruginosa 799/61, DST agar, 35° C., 20 hours) was more than 64 µg/mL.

For `Cc1cc(-c2nc3ccc(-c4ccc5nc(-c6ccc(O)c(C)c6)[nH]c5c4)cc3[nH]2)ccc1O` [Example 2], the MIC is 1 µg/mL (≈ 2.24 µM) in experiment [20]; less than 0.1 µg/mL in [21]; more than 128 µg/mL in experiment [22]; more than 128 µg/mL in experiment [4]; more than 128 µg/mL in [5] (H560, 20 h); 0.5 µg/mL (≈ 1.12 µM) in experiment [6]. Further, the MIC in experiment [7] is 0.5 µg/mL (≈ 1.12 µM); in experiment [8] it was 2 µg/mL (≈ 4.48 µM); in experiment [9] it was more than 128 µg/mL; in [10], not above 0.25 µg/mL; in experiment [23] (Escherichia coli, 25922, 20 h) it was 128 µg/mL (≈ 287 µM); in experiment [11], not above 0.25 µg/mL. Moreover, the MIC in [12] is 4 µg/mL (≈ 8.96 µM); in [13], not above 0.25 µg/mL; in experiment [24], more than 128 µg/mL; in experiment [14] (20 h), more than 128 µg/mL; in experiment [15], not above 0.25 µg/mL; in experiment [16] (setting [26]), not above 0.25 µg/mL. The MIC was 4 µg/mL (≈ 8.96 µM) in [17]; more than 128 µg/mL in experiment [18] (159R, 20 h); more than 128 µg/mL in experiment [19] (799/61, 20 h).

Regarding `Oc1ccc(-c2nc3ccc(-c4ccc5nc(-c6ccc(O)cc6)[nH]c5c4)cc3[nH]2)cc1` [Example 5, 4-[2'-(4-Hydroxy-phenyl)-6,6'-dibenzimidazol-2-yl)-phenol hydrochloride], the MIC in experiment [20] was 1 µg/mL; in experiment [21], less than 0.1 µg/mL; in [1] it was 0.12 µg/mL; in experiment [22], more than 128 µg/mL; in experiment [2] (20 h), more than 128 µg/mL; in experiment [3] (1527E, 20 h) it was more than 128 µg/mL. For the same compound, the MIC was more than 128 µg/mL in experiment [4]; more than 128 µg/mL in experiment [5] (H560, 20 h); more than 32 µg/mL in experiment [6]; not above 0.12 µg/mL in experiment [7]; not above 0.12 µg/mL in [8]; more than 128 µg/mL in experiment [9]. Besides, the MIC in experiment [10] was not above 0.06 µg/mL; in experiment [23] (setting [28]), more than 128 µg/mL; in [11] it was not above 0.12 µg/mL; in [12], 0.25 µg/mL; in experiment [13], not above 0.12 µg/mL; in experiment [24] it was more than 128 µg/mL. Further, the MIC in experiment [14] (20 h) was more than 128 µg/mL; in experiment [15], 0.25 µg/mL; in experiment [25], not above 0.12 µg/mL; in [16] (Enterococcus faecalis, 6, 20 h), not above 0.06 µg/mL; in [17] it was not above 0.12 µg/mL; in experiment [18] (setting [27]), more than 4 µg/mL. For the same compound, the MIC in experiment [19] (799/61, 20 h) is more than 128 µg/mL.

With `CCOc1ccc(-c2nc3ccc(-c4ccc5nc(-c6ccc(O)cc6)[nH]c5c4)cc3[nH]2)cc1` [Example 11, 4-[2'-(4-Ethoxy-phenyl)-6,6'-dibenzimidazol-2-yl]-phenol], the MIC in experiment [20] is 1 µg/mL (≈ 2.24 µM); in experiment [21], less than 0.1 µg/mL; in experiment [22] it was more than 128 µg/mL; in experiment [4] it was more than 128 µg/mL; in [5] (H560, 20 h), more than 128 µg/mL; in experiment [6], 0.5 µg/mL (≈ 1.12 µM). Further, the MIC is 0.5 µg/mL (≈ 1.12 µM) in experiment [7]; 0.25 µg/mL (≈ 0.56 µM) in experiment [8]; more than 128 µg/mL in [9]; 0.12 µg/mL (≈ 0.269 µM) in experiment [10]; more than 128 µg/mL in [23] (setting [28]); 0.25 µg/mL (≈ 0.56 µM) in experiment [11]. For the same compound, the MIC in [12] was 0.5 µg/mL (≈ 1.12 µM); in experiment [13] it was 0.25 µg/mL (≈ 0.56 µM); in experiment [24], more than 128 µg/mL; in experiment [14] (20 h), more than 128 µg/mL; in experiment [15], 0.25 µg/mL (≈ 0.56 µM); in experiment [25], 0.25 µg/mL (≈ 0.56 µM). Also, the MIC is 0.5 µg/mL (≈ 1.12 µM) in [16] (setting [26]); 1 µg/mL (≈ 2.24 µM) in experiment [17]; more than 128 µg/mL in experiment [18] (159R, 20 h); more than 128 µg/mL in [19] (799/61, 20 h).
